Test results as given in patent publication US8952024B2, “Herbicidal pyrimidone derivatives” (E I du Pont de Nemours and Company, priority 2009, dated 2015).

Tests used:
Format in all cases: in vivo
[1] = system: barnyardgrass (Echinochloa crus-galli); assay: Test A pre-/postemergence plant response
Method in brief: (§1)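 Greenhouse pots of loam/sand received directed preemergence soil sprays or postemergence sprays (plants 2–10 cm, 1–2 leaf stage), compounds formulated in non-phytotoxic solvent with surfactant. Injury was rated visually versus untreated controls after about ten days on a 0 (no effect) to 100 (complete control) scale.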

corn (Zea mays) = assay: Test A pre-/postemergence plant response
Method in brief: as §1

[2] = system: giant foxtail (Setaria faberii); assay: Test A pre-/postemergence plant response
Method in brief: as §1

[3] = system: large crabgrass (Digitaria sanguinalis); assay: Test A pre-/postemergence plant response
Method in brief: as §1

[4] = system: morningglory (Ipomoea spp.); assay: Test A pre-/postemergence plant response
Method in brief: as §1

[5] = system: pigweed (Amaranthus retroflexus); assay: Test A pre-/postemergence plant response
Method in brief: as §1

[6] = system: velvetleaf (Abutilon theophrasti); assay: Test A pre-/postemergence plant response
Method in brief: as §1

[7] = system: wheat (Triticum aestivum); assay: Test A pre-/postemergence plant response
Method in brief: as §1

[8] = system: winter barley (Hordeum vulgare); assay: Test B postemergence plant response; details: for Barley plant response rating (0 to 100 scale): 62 g ai/ha, 0 is no effect, 13 to 15 days
Method in brief: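 Visual ratings from 0 (no effect) to 100 (complete control), made against controls 13–15 days after treatment, kept in a greenhouse. Compounds were applied postemergence to potted plants at the 1- to 4-leaf stage (2–18 cm).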

[9] = system: barnyardgrass (Echinochloa crus-galli); assay: Test B flooded paddy test; details: for Plant response rating, Flood, Barnyardgrass: 250 g ai/ha, flooded paddy test, visual rating on 0 to 100 scale (0 no effect, 100 complete control) after 13 to 15 days; for Plant response rating, Barnyardgrass: Flood (flooded paddy test), 13 to 15 days; for Barnyardgrass plant response rating: Flood, 31 g ai/ha, scale 0 to 100 (0 no effect, 100 complete control)
Method in brief: (§2)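 2-leaf seedlings; pots flooded 3 cm over soil at treatment; cpd dosed into floodwater, depth kept constant. Greenhouse 13–15 d. Visual rating vs untreated controls, 0 = no effect, 100 = complete control.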

[10] = system: ducksalad (Heteranthera limosa); assay: Test B flooded paddy test; details: for Plant response rating, Flood, Ducksalad: 250 g ai/ha, flooded paddy test, visual rating on 0 to 100 scale (0 no effect, 100 complete control) after 13 to 15 days; for Plant response rating, Ducksalad: Flood (flooded paddy test), 13 to 15 days; for Ducksalad plant response rating: Flood, 31 g ai/ha, scale 0 to 100 (0 no effect, 100 complete control)
Method in brief: as §2

rice (Oryza sativa) = assay: Test B flooded paddy test; details: for Plant response rating, Flood, Rice: 250 g ai/ha, flooded paddy test, visual rating on 0 to 100 scale (0 no effect, 100 complete control) after 13 to 15 days; for Plant response rating, Rice: Flood (flooded paddy test), 13 to 15 days; for Rice plant response rating: Flood, 31 g ai/ha, scale 0 to 100 (0 no effect, 100 complete control)
Method in brief: as §2

[11] = system: umbrella sedge (Cyperus difformis); assay: Test B flooded paddy test; details: for Plant response rating, Flood, Sedge, Umbrella: 250 g ai/ha, flooded paddy test, visual rating on 0 to 100 scale (0 no effect, 100 complete control) after 13 to 15 days; for Plant response rating, Sedge, Umbrella: Flood (flooded paddy test), 13 to 15 days; for Sedge, Umbrella plant response rating: Flood, 31 g ai/ha, scale 0 to 100 (0 no effect, 100 complete control)
Method in brief: as §2

[12] = Postemergence, 125 g ai/ha, 0 to 100 scale where 0 is no effect and 100 is complete control
[13] = Postemergence, 500 g ai/ha, 0 to 100 scale, 0 = no effect, 100 = complete control, approx. ten days
[14] = Preemergence, 125 g ai/ha, 0 to 100 scale, 0 = no effect, 100 = complete control
[15] = Preemergence, 500 g ai/ha, visual injury, 0 to 100 scale (0 no effect, 100 complete control), approx. ten days
[16] = 31 g ai/ha, postemergence, scale 0 to 100, 0 is no effect, 100 is complete control
[17] = postemergence, 100 is complete control
[18] = Postemergence, 125 g ai/ha, visual rating after 13 to 15 days, scale 0 (no effect) to 100 (complete control)
[19] = Postemergence, 250 g ai/ha, scale 0 to 100 (0 no effect, 100 complete control)
[20] = 62 g ai/ha, scale of 0 to 100 where 0 is no effect and 100 is complete control
[21] = 125 g ai/ha, scale 0 to 100, 0 is no effect, 100 is complete control

CCOCCn1c(-c2ccccc2)ncc(C(=O)C2=C(O)CCCC2=O)c1=O [Compound 96]
Plant response rating, Barnyardgrass [1, 12]: 90
Plant response rating, Barnyardgrass [1, 13]: 90
Plant response rating, Barnyardgrass [1, 14]: 90
Plant response rating, Barnyardgrass [1, 15]: 100
Plant response rating, Corn (corn (Zea mays); [12]): 0
Plant response rating, Corn (corn (Zea mays); [13]): 20
Plant response rating, Corn (corn (Zea mays); [14]): 0
Plant response rating, Corn (corn (Zea mays); [15]): 10
Plant response rating, Foxtail, Giant [2, 12]: 70
Plant response rating, Foxtail, Giant [2, 13]: 90
Plant response rating, Foxtail, Giant [2, 14]: 50
Plant response rating, Foxtail, Giant [2, 15]: 80
Plant response rating, Crabgrass, Large [3, 12]: 90
Plant response rating, Crabgrass, Large [3, 13]: 100
Plant response rating, Crabgrass, Large [3, 14]: 100
Plant response rating, Crabgrass, Large [3, 15]: 100
Plant response rating, Morningglory [4, 12]: 100
Plant response rating, Morningglory [4, 13]: 100
Plant response rating, Morningglory [4, 14]: 80
Plant response rating, Morningglory [4, 15]: 80
Plant response rating, Pigweed [5, 12]: 100
Plant response rating, Pigweed [5, 13]: 100
Plant response rating, Pigweed [5, 14]: 100
Plant response rating, Pigweed [5, 15]: 100
Plant response rating, Velvetleaf [6, 12]: 100
Plant response rating, Velvetleaf [6, 13]: 100
Plant response rating, Velvetleaf [6, 14]: 100
Plant response rating, Velvetleaf [6, 15]: 100
Plant response rating, Wheat [7, 12]: 0
Plant response rating, Wheat [7, 13]: 20
Plant response rating, Wheat [7, 14]: 0
Plant response rating, Wheat [7, 15]: 0
Plant response rating, Barley [8, 16]: 0
Barley plant response rating (0 to 100 scale) [8, 17]: 0
Plant response rating, Barley [8, 18]: 0
Plant response rating, Barley [8, 19]: 5
Plant response rating, Flood, Barnyardgrass [9]: 85
Plant response rating, Barnyardgrass [9, 20]: 65
Plant response rating, Barnyardgrass [9, 21]: 80
Barnyardgrass plant response rating [9]: 60
Plant response rating, Flood, Ducksalad [10]: 75
Plant response rating, Ducksalad [10, 20]: 0
Plant response rating, Ducksalad [10, 21]: 50
Ducksalad plant response rating [10]: 0
Plant response rating, Flood, Rice (rice (Oryza sativa)): 15
Plant response rating, Rice (rice (Oryza sativa); [20]): 15
Plant response rating, Rice (rice (Oryza sativa); [21]): 15
Rice plant response rating (rice (Oryza sativa)): 10
Plant response rating, Flood, Sedge, Umbrella [11]: 90
Plant response rating, Sedge, Umbrella [11, 20]: 75
Plant response rating, Sedge, Umbrella [11, 21]: 85
Sedge, Umbrella plant response rating [11]: 50

CCCCCCn1c(-c2ccccc2)ncc(C(=O)C2=C(O)CCCC2=O)c1=O [Compound 94]
Plant response rating, Barnyardgrass [1, 12]: 90
Plant response rating, Barnyardgrass [1, 13]: 90
Plant response rating, Barnyardgrass [1, 14]: 0
Plant response rating, Barnyardgrass [1, 15]: 30
Plant response rating, Corn (corn (Zea mays); [12]): 0
Plant response rating, Corn (corn (Zea mays); [13]): 10
Plant response rating, Corn (corn (Zea mays); [14]): 0
Plant response rating, Corn (corn (Zea mays); [15]): 0
Plant response rating, Foxtail, Giant [2, 12]: 30
Plant response rating, Foxtail, Giant [2, 13]: 80
Plant response rating, Foxtail, Giant [2, 14]: 0
Plant response rating, Foxtail, Giant [2, 15]: 40
Plant response rating, Crabgrass, Large [3, 12]: 80
Plant response rating, Crabgrass, Large [3, 13]: 90
Plant response rating, Crabgrass, Large [3, 14]: 30
Plant response rating, Crabgrass, Large [3, 15]: 90
Plant response rating, Morningglory [4, 12]: 100
Plant response rating, Morningglory [4, 13]: 100
Plant response rating, Morningglory [4, 14]: 10
Plant response rating, Morningglory [4, 15]: 40
Plant response rating, Pigweed [5, 12]: 100
Plant response rating, Pigweed [5, 13]: 100
Plant response rating, Pigweed [5, 14]: 70
Plant response rating, Pigweed [5, 15]: 100
Plant response rating, Velvetleaf [6, 12]: 100
Plant response rating, Velvetleaf [6, 13]: 100
Plant response rating, Velvetleaf [6, 14]: 40
Plant response rating, Velvetleaf [6, 15]: 70
Plant response rating, Wheat [7, 12]: 0
Plant response rating, Wheat [7, 13]: 0
Plant response rating, Wheat [7, 14]: 0
Plant response rating, Wheat [7, 15]: 0
Plant response rating, Barley [8, 16]: 0
Barley plant response rating (0 to 100 scale) [8, 17]: 0
Plant response rating, Barley [8, 18]: 5
Plant response rating, Barley [8, 19]: 5
Plant response rating, Flood, Barnyardgrass [9]: 60
Plant response rating, Barnyardgrass [9, 20]: 0
Plant response rating, Barnyardgrass [9, 21]: 40
Barnyardgrass plant response rating [9]: 0
Plant response rating, Flood, Ducksalad [10]: 30
Plant response rating, Ducksalad [10, 20]: 20
Plant response rating, Ducksalad [10, 21]: 25
Ducksalad plant response rating [10]: 0
Plant response rating, Flood, Rice (rice (Oryza sativa)): 35
Plant response rating, Rice (rice (Oryza sativa); [20]): 0
Plant response rating, Rice (rice (Oryza sativa); [21]): 20
Rice plant response rating (rice (Oryza sativa)): 0
Plant response rating, Flood, Sedge, Umbrella [11]: 85
Plant response rating, Sedge, Umbrella [11, 20]: 70
Plant response rating, Sedge, Umbrella [11, 21]: 85
Sedge, Umbrella plant response rating [11]: 20
